Patent publication US6399542B1, “Alkoxyimino-substituted bicyclic compounds compositions containing the same and method of making such compounds” (Agro-Kanesho Co., Ltd., priority 1997, dated 2002)
Where two headings read alike, the source gives them in different places.

Tests used:
Format in all cases: in vivo
[1] = system: Puccinia recondita; test: Effect on Wheat brown rust (preventive spray test); settings: 7 days after inoculation
[2] = system: Phytophthora infestans; settings: Tomato late blight, 5 days after inoculation
[3] = system: Psecidoperonospora cubensis; test: Effect on Cucumber downy mildew (preventive spray test); settings: 7 days after inoculation
[4] = system: Erysiphe graminis; test: Effects on Barley powdery mildew (preventive spray test); settings: lesions counted seven days after inoculation
[5] = conc. of active ingredient 4 ppm
[6] = conc. of active ingredient 20 ppm
[7] = conc. of active ingredient 100 ppm

Row | Compound | Preventive rate (%) [1, 5] | Preventive rate (%) [1, 6] | Preventive rate (%) [1, 7] | Preventive rate (%) [3, 6] | Preventive rate (%) [3, 7] | further results
1 | CNC(=O)C(=NOC)c1ccccc1COc1ccc2c(c1C)OCCC2=NOCC#N [c-49] | 91% | 93% | 94% | – | – | –
2 | CON=C1CCc2cc(OCc3ccccc3C(=NOC)C(=O)OC)ccc21 [e-4] | – | 98% | – | – | – | –
3 | CON=C(C(=O)OC)c1ccccc1COc1ccc2c(c1C)OCCC2=NOCC=CCl [c-61] | 99% | 100% | 100% | – | – | –
4 | CNC(=O)/C(=N/OC)c1ccccc1COc1ccc2c(c1C)OCC2=NOCC=C(C)C [a-67] | 100% | 100% | 100% | 100% | 100% | Preventive rate (%) [2, 6]: 88%; Preventive rate (%) [2, 7]: 100%
5 | CON=C(C(=O)OC)c1ccccc1COc1ccc2c(c1C)OCCC2=NOC(C)(C)C [c-52] | – | 93% | 100% | – | – | –
6 | CNC(=O)C(=NOC)c1ccccc1COc1ccc2c(c1C)OCCC2=NOCC=C(C)C [c-67] | 100% | 100% | 100% | – | – | Preventive rate (%) [4, 6]: 100%; Preventive rate (%) [4, 7]: 100%
7 | CON=C(C(=O)OC)c1ccccc1COc1ccc2c(c1C)OCCC2=NOCC#N [c-48] | 100% | 100% | 100% | – | – | –
8 | CON=C(C(=O)OC)c1ccccc1COc1ccc2c(c1)OCCC2=NOCC=CCl [c-63] | – | 99% | 100% | – | – | –
9 | CNC(=O)C(=NOC)c1ccccc1COc1ccc2c(c1C)OCCC2=NOCc1ccc(Cl)c(Cl)c1 [c-79] | 97% | 100% | 100% | – | – | Preventive rate (%) [4, 6]: 100%; Preventive rate (%) [4, 7]: 100%
10 | CCc1c(OCc2ccccc2C(=NOC)C(=O)OC)ccc2c1OCCC2=NOC [c-29] | 96% | 100% | 100% | – | – | Preventive rate (%) [4, 6]: 95%; Preventive rate (%) [4, 7]: 99%
11 | CNC(=O)C(=NOC)c1ccccc1COc1ccc2c(c1C)OCCC2=NOCc1cccc2ccccc12 [c-89] | 96% | 100% | 100% | – | – | Preventive rate (%) [4, 6]: 92%; Preventive rate (%) [4, 7]: 98%
12 | CON=C(C(=O)OC)c1ccccc1COc1ccc2c(c1C)OCCC2=NOCc1cccc(F)c1 [c-80] | – | 98% | 100% | – | – | –
13 | CNC(=O)/C(=N/OC)c1ccccc1COc1ccc2c(c1C)OCC2=NOCc1ccccc1 [a-73] | 100% | 100% | 100% | 88% | 88% | Preventive rate (%) [4, 5]: 98%; Preventive rate (%) [4, 6]: 100%; Preventive rate (%) [4, 7]: 100%
14 | CON=C1CCOc2cc(OCc3ccccc3N(OC)C(=O)OC)ccc21 [c-7] | – | 99% | 100% | 94% | 100% | –
15 | CCc1cc2c(cc1OCc1ccccc1/C(=N\OC)C(=O)OC)OCC2=NOC (single isomer, unassigned) [a-29] | – | – | – | 97% | 97% | –
16 | CNC(=O)C(=NOC)c1ccccc1COc1ccc2c(c1C)OCCC2=NOCc1cccc(F)c1 [c-81] | 98% | 99% | 100% | – | – | Preventive rate (%) [4, 6]: 98%; Preventive rate (%) [4, 7]: 98%
17 | CO/N=C(/C(=O)OC)c1ccccc1COc1ccc2c(c1C)OCC2=NOCc1ccc(Cl)c(Cl)c1 [a-78] | 95% | 100% | 100% | – | – | –
18 | CCc1cc2c(cc1OCc1ccccc1/C(=N\OC)C(=O)NC)OCC2=NOC (single isomer, unassigned) [a-31] | – | – | – | – | – | Preventive rate (%) [4, 6]: 99%; Preventive rate (%) [4, 7]: 100%

Row | Compound | Preventive rate (%) [1, 5] | Preventive rate (%) [1, 6] | Preventive rate (%) [1, 7] | Preventive rate (%) [3, 6] | Preventive rate (%) [3, 7] | further results
19 | CO/N=C(/C(=O)OC)c1ccccc1COc1ccc2c(c1C)OCC2=NOCc1ccccc1 [a-72] | – | 100% | 100% | – | – | –
20 | CCc1cc2c(cc1OCc1ccccc1/C(=N\OC)C(=O)NC)OCC2=NOC [a-32] | – | – | – | 81% | 97% | Preventive rate (%) [2, 6]: 98%; Preventive rate (%) [2, 7]: 91%
21 | CON=C(C(=O)OC)c1ccccc1COc1cc2c(cc1C)C(=NOC)C(C)C2 (single isomer, unassigned) [f-9] | – | – | – | 100% | 100% | Preventive rate (%) [2, 6]: 93%; Preventive rate (%) [2, 7]: 98%; Preventive rate (%) [3, 5]: 100%
22 | CNC(=O)/C(=N/OC)c1ccccc1COc1ccc2c(c1C)OCC2=NOCC#N [a-49] | 100% | 100% | 100% | 100% | 100% | Preventive rate (%) [2, 6]: 97%; Preventive rate (%) [2, 7]: 97%; Preventive rate (%) [3, 5]: 88%
23 | CNC(=O)/C(=N/OC)c1ccccc1COc1ccc2c(c1C)OCC2=NOCc1ccc(Cl)c(Cl)c1 [a-79] | 98% | 98% | 100% | – | – | –
24 | CNC(=O)C(=NOC)c1ccccc1COc1ccc2c(c1C)OCCC2=NOCC=CCl [c-62] | 100% | 100% | 100% | – | – | Preventive rate (%) [2, 6]: 100%; Preventive rate (%) [2, 7]: 100%; Preventive rate (%) [4, 5]: 96%; Preventive rate (%) [4, 6]: 100%; Preventive rate (%) [4, 7]: 100%
25 | C/C=C/CON=C1COc2c1ccc(OCc1ccccc1/C(=N\OC)C(=O)NC)c2C [a-65] | – | 100% | 100% | 94% | 100% | Preventive rate (%) [2, 6]: 97%; Preventive rate (%) [2, 7]: 100%
26 | CO/N=C(/C(=O)OC)c1ccccc1COc1ccc2c(c1C)OCC2=NOCC#N [a-48] | 100% | 100% | 100% | 100% | 100% | Preventive rate (%) [2, 6]: 81%; Preventive rate (%) [2, 7]: 94%
27 | CCCCON=C1CCOc2c1ccc(OCc1ccccc1C(=NOC)C(=O)NC)c2C [c-43] | – | 93% | – | – | – | –
28 | CNC(=O)C(OC)c1ccccc1COc1ccc2c(c1)OCCC2=NOC (racemic) [c-11] | – | 93% | 99% | – | – | –
29 | CNC(=O)/C(=N/OC)c1ccccc1COc1ccc2c(c1C)OCC2=NOCC(=O)OC [a-54] | 100% | 100% | 100% | – | – | –
30 | CON=C(C(=O)OC)c1ccccc1COc1ccc2c(c1C)CCC2=NOC [e-15] | – | 98% | 99% | 95% | 100% | –
31 | CON=C(C(=O)OC)c1ccccc1COc1ccc2c(c1C)CCC2=NOCC=CCl [e-57] | – | – | – | 94% | 100% | –
32 | C#CCON=C1CCc2c1ccc(OCc1ccccc1C(=NOC)C(=O)OC)c2C [e-60] | – | – | – | 88% | 100% | –
33 | CO/N=C(/C(=O)OC)c1ccccc1COc1ccc2c(c1C)OCC2=NOCC=C(C)C [a-66] | 100% | 100% | 100% | – | – | –
34 | CON=C(C(=O)OC)c1ccccc1COc1ccc2c(c1C)OCCC2=NOCc1ccc(Cl)c(Cl)c1 [c-78] | – | 96% | 100% | – | – | –
35 | CON=C(C(=O)OC)c1ccccc1COc1ccc2c(c1C)OCCC2=NOCc1c(F)c(F)c(F)c(F)c1F [c-82] | – | 96% | 100% | – | – | Preventive rate (%) [4, 6]: 86%; Preventive rate (%) [4, 7]: 100%
36 | CON=C(C(=O)OC)c1ccccc1COc1cc2c(cc1C)C(=NOC)CCO2 [c-26] | – | 98% | 99% | 100% | 100% | –
